The values below come from ChEMBL document CHEMBL1201862, “PubChem BioAssay data set” (2004).

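Cultured in 96-well plates, cells were exposed to test compound for 48 hours across five concentrations. Here, GI50 denotes the concentration required for 50% inhibition of growth.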 Active and inactive are the calls of the source. Cut-off read from the data, not from the text of the source: active = GI50 up to about 1.1 µM and inactive = higher.

What all share (assay): DTP human tumour cell line panel, 48 h
Assay [1] relates to Malme-3M.
The subject of assay [2] is UACC-257.
Assay [3] deals with SW-620.
Assay [4] has as its system BT-549.
The subject of assay [5] is IGROV-1.
Assay [6] deals with UACC-62.
The subject of assay [7] is LOX IMVI.
The subject of assay [8] is NCI-H23.
Assay [9] relates to 786-0.
In assay [10] the test system is MDA-MB-435.
Assay [11] relates to OVCAR-5.
For assay [12], the system named is HCT-15.
Assay [13] concerns KM12.
For assay [14], the system named is SK-MEL-5.
Assay [15] concerns M14.
Assay [16] deals with NCI-H522.
Assay [17] deals with EKVX.
Assay [18] concerns SN12C.
Assay [19] has as its system MDA-MB-231.
The test system of assay [20] is MDA-N.

For the compound `COc1ccc(Cn2c3c(cc(OC(C)=O)c2=O)Cc2ccccc2-3)cc1`, the GI50 in assay [1] is 10.9 µM (inactive); in [2], 2.28 µM (inactive); in assay [3], 6.64 µM (inactive); in assay [4] it was 11.2 µM (inactive); in assay [5], 7.82 µM (inactive); in [6], 9.1 µM (inactive). Moreover, the GI50 in [7] was 6.12 µM (inactive); in assay [8] it was 10.5 µM (inactive); in [9], 5.33 µM (inactive); in assay [10], 11 µM (inactive); in [11] it was 18.7 µM (inactive); in assay [12], 2.55 µM. Further, the GI50 was 11.4 µM (inactive) in assay [13]; 12.2 µM (inactive) in [14]; 6.24 µM (inactive) in assay [15]; 7.01 µM (inactive) in assay [16]; 7.76 µM (inactive) in assay [17]; 7.55 µM (inactive) in assay [18]. Besides, the results for the GI50 in assay [19] and in [20] were 13.2 µM (inactive) and 12.1 µM (inactive), respectively.

For the compound `CSC(=O)/C=C1\SS/C(=C\C(=O)SC)S1`, the GI50 was 2.13 µM (inactive) in assay [1]; 3.06 µM (inactive) in assay [2]; 1.81 µM (inactive) in assay [3]; 1.69 µM (inactive) in assay [4]; 3.37 µM (inactive) in assay [5]; 0.796 µM (active) in [6]. For the same compound, the GI50 in assay [7] was 1.55 µM (inactive); in [8], 3.08 µM (inactive); in assay [9], 1.85 µM (inactive); in assay [10], 2.29 µM (inactive); in assay [11], 3.98 µM (inactive); in [12], 2.06 µM. Moreover, the GI50 was 5.05 µM (inactive) in [13]; 2.65 µM (inactive) in assay [14]; 2.09 µM (inactive) in [15]; 2.39 µM (inactive) in assay [16]; 2.4 µM (inactive) in [17]; 1.82 µM (inactive) in [18]. For the same compound, the GI50 in [19] is 2.07 µM (inactive); in assay [20], 2.51 µM (inactive).

`CCOC(=O)c1c(N)nn2c1cc1cccccc12`: the GI50 in assay [1] is 27.8 µM (inactive); in [2], 27.4 µM (inactive); in assay [3], 32.5 µM (inactive); in [4] it was 25.3 µM (inactive); in assay [5], 27.9 µM (inactive); in [6] it was 23.6 µM (inactive). The GI50 is 25.1 µM (inactive) in assay [7]; 29.3 µM (inactive) in [8]; 34.4 µM (inactive) in assay [9]; 31.8 µM (inactive) in assay [10]; 59.8 µM (inactive) in assay [11]; 32.3 µM in [12]. The GI50 in assay [13] is 20.8 µM (inactive); in assay [14], 26.1 µM (inactive); in assay [15] it was 42.1 µM (inactive); in [16], 20.1 µM (inactive); in assay [17] it was 16.3 µM (inactive); in assay [18] it was 32.9 µM (inactive). Also, the GI50 in assay [19] is 43 µM (inactive); in assay [20], 41.5 µM (inactive).

In the case of `COc1ccccc1C(=O)c1c(N2CCCCC2)c(=O)c1=O`, the GI50 in [1], in assay [2], in [3], in assay [4], in assay [5] and in [6] was > 100 µM (inactive) throughout. Further, the GI50 in assay [7] was > 100 µM (inactive); in [8], > 100 µM (inactive); in assay [9] it was > 100 µM (inactive); in assay [10] it was > 100 µM (inactive); in [11], > 100 µM (inactive); in [12] it was above 100 µM. Besides, the GI50 in assay [13] is 78.7 µM (inactive); in assay [14], > 100 µM (inactive); in assay [15], > 100 µM (inactive); in assay [16], 59.3 µM (inactive); in [17], > 100 µM (inactive); in assay [18], > 100 µM (inactive). Also, the GI50 in assay [19] and in assay [20] was > 100 µM (inactive) throughout.

Turning to `N#Cc1c(-c2ccccc2)cc(Nc2ccc(Cl)cc2)n2c1nc1ccccc12`, the GI50 in assay [1] was 5.16 µM (inactive); in assay [2], 1.91 µM (inactive); in assay [3] it was 4.84 µM (inactive); in assay [4] it was 4.59 µM (inactive); in assay [5], 1.36 µM (inactive); in assay [6] it was 0.975 µM (active). In addition, the GI50 in assay [7] is 3.75 µM (inactive); in [8], 2.64 µM (inactive); in assay [9], 2.62 µM (inactive); in assay [10] it was 2.99 µM (inactive); in [11], 3.9 µM (inactive); in assay [12], 3.37 µM. Moreover, the GI50 in [13] was 2.94 µM (inactive); in [14], 1.46 µM (inactive); in assay [15] it was 4.23 µM (inactive); in assay [16], 1.91 µM (inactive); in [17], 1.52 µM (inactive); in [18] it was 2.28 µM (inactive). In addition, the GI50 in assay [19] was 3.27 µM (inactive); in [20], 2.42 µM (inactive).

Take `Cc1[nH]c2ccccc2c1/C=N/c1ccc(/N=C/c2c(C)[nH]c3ccccc23)cc1`: the GI50 in assay [1] is 30.8 µM (inactive); in [2], 67.3 µM (inactive); in [3], 22.9 µM (inactive); in assay [4], 47.9 µM (inactive); in [5], 49.9 µM (inactive); in assay [6], 42.6 µM (inactive). The GI50 was 19.1 µM (inactive) in assay [7]; 29.1 µM (inactive) in assay [8]; 18.8 µM (inactive) in assay [9]; 19.7 µM (inactive) in [10]; > 100 µM (inactive) in assay [11]; 32 µM in assay [12]. The GI50 in assay [13] is 16.4 µM (inactive); in assay [14] it was 17.2 µM (inactive); in assay [15] it was 71.3 µM (inactive); in assay [16], 17.5 µM (inactive); in assay [17], 38.9 µM (inactive); in [18], 61.2 µM (inactive). Moreover, the GI50 in assay [19] is 32.5 µM (inactive); in assay [20], 30.5 µM (inactive).

Regarding `CC[C@]1(O)CC(OC2CC(N(C)C)C(O)C(C)O2)c2c(cc3c(c2O)C(=O)c2c(O)cccc2C3=O)[C@@H]1C(=O)OC` (stereo not given in full), the GI50 in assay [1] was 0.245 µM (active); in assay [2], 0.347 µM (active); in assay [3], 0.0392 µM (active); in assay [4], 1.16 µM (inactive); in [5], 0.119 µM (active); in assay [6], 0.196 µM (active). Besides, the GI50 was 0.0859 µM (active) in assay [7]; 0.272 µM (active) in assay [8]; 0.205 µM (active) in [9]; 0.291 µM (active) in assay [10]; 0.718 µM (active) in assay [11]; 0.244 µM in [12]. For the same compound, the GI50 in assay [13] is 0.225 µM (active); in [14] it was 0.192 µM (active); in assay [15], 0.468 µM (active); in assay [16], 0.108 µM (active); in assay [17], 0.493 µM (active); in assay [18], 0.178 µM (active). Further, the values for the GI50 in [19] and in assay [20] were 0.351 µM (active) and 0.384 µM (active), respectively.
